In US20180200257A1, “METHODS FOR THE TREATMENT OF INFLAMMATORY DISORDERS” (Galapagos NV, priority 2015, published 2018):

Test system: subjects with moderately to severely active RA who have an inadequate response to methotrexate (MTX)
Assay: Study 1 (add-on to MTX) - serum CRP values
Type: in vivo, human
Protocol: Double-blind, placebo-controlled add on study in subjects with moderately to severely active RA who have an inadequate response to methotrexate (MTX) (oral or parenteral).
595 subjects randomized to one of 6 dose regimens of Compound 1 (dosed as [Compound 1:HCl:3H2O]) (3 dose levels administered either once or twice daily) or placebo on top of each subject's stable dose of MTX.
Compound 1 (dosed as [Compound 1:HCl:3H2O]) is dosed for twelve weeks once daily (q.d.) (50 mg, 100 mg or 200 mg) or twice daily (b.i.d.) (25 mg, 50 mg or 100 mg); or placebo.
At Week 12, the subjects on placebo who have not achieved 20% improvement in swollen joint count (SJC66) and tender joint count (TJC68) are re-randomized automatically to receive Compound 1 (dosed as a [Compound 1:HCl:3H2O]) either at 100 mg q.d. or 50 mg b.i.d. doses in a blinded fashion; subjects on 50 mg q.d. who have not achieved 20% improvement in SJC66 and TJC68 will be assigned to 100 mg q.d. and subjects on 25 mg b.i.d. that have not achieved a 20% improvement in SJC66 and TJC68 will be assigned to 50 mg b.i.d. Subjects who switch treatment at week 12 are handled as if they discontinued at week 12 for the purpose of statistical analysis, whereas subjects in the other groups will maintain their randomized treatment until Week 24.
CRP determination is available at Quest Diagnostics, Clinical Trials, Quest House, 125-135 Staines Road, Hounslow, Middlesex, TW3 3JB, United Kingdom under Catalogue n#86140.
The determination of CRP is made using Immunoturbidimetric assay for the in vitro quantitative determination of CRP in human serum and plasma on Roche/Hitachi cobas c systems, wherein human CRP agglutinates with latex particles coated with monoclonal anti-CRP antibodies. The aggregates are determined turbidimetrically (Eda et al., 1998; Price et al., 1987).
Human serum and plasma samples CRP determination was done on a Roche/Hitachi Cobas c 301 c 501/502 system which automatically calculate the analyte concentration of each sample. Samples containing precipitates are centrifuged before performing the assay.
The machine parameters are listed in Table XCI and Table XCII below, and the results at 12 weeks v using either LOCF are shown in Table XCIII and below. The Hommel-corrected p-value for the pairwise comparisons of each group with placebo is shown.
The number of subjects (N) provided in each groups corresponds to the number of subjects starting the study in each group, and the CRP data reported below corresponds to the responding subjects continuing for the entire 24 weeks on their initial treatment course.

## O=C(Nc1nc2cccc(-c3ccc(CN4CCS(=O)(=O)CC4)cc3)n2n1)C1CC1 [Compound 1, cyclopropanecarboxylic acid {5-[4-(1,1-dioxo-thiomorpholin-4-ylmethyl)-phenyl]-[1,2,4]triazolo[1,5-a]pyridin-2-yl}-amide]
50 mg q.d., week 1, 12 weeks results
  CRP mean CFB mg/L (LOCF): -7.95 mg/L
50 mg q.d., week 1, 24 weeks results
  CRP mean CFB mg/L (LOCF): -7.95 mg/L
50 mg q.d., week 2, 12 weeks results
  CRP mean CFB mg/L (LOCF): -8.23 mg/L
50 mg q.d., week 2, 24 weeks results
  CRP mean CFB mg/L (LOCF): -8.23 mg/L
50 mg q.d., week 4, 12 weeks results
  CRP mean CFB mg/L (LOCF): -10.18 mg/L
50 mg q.d., week 4, 24 weeks results
  CRP mean CFB mg/L (LOCF): -10.18 mg/L
50 mg q.d., week 12, 12 weeks results
  CRP mean CFB mg/L (LOCF): -13.15 mg/L
50 mg q.d., week 12, 24 weeks results
  CRP mean CFB mg/L (LOCF): -13.15 mg/L
50 mg q.d., week 16, 24 weeks results
  CRP mean CFB mg/L (LOCF): -13.55 mg/L
50 mg q.d., week 20, 24 weeks results
  CRP mean CFB mg/L (LOCF): -13.12 mg/L
50 mg q.d., week 24, 24 weeks results
  CRP mean CFB mg/L (LOCF): -15.22 mg/L
50 mg q.d., week 8, 12 weeks results
  CRP mean CFB mg/L (LOCF): -12.02 mg/L
50 mg q.d., week 8, 24 weeks results
  CRP mean CFB mg/L (LOCF): -12.02 mg/L
100 mg q.d., week 1, 12 weeks results
  CRP mean CFB mg/L (LOCF): -11.02 mg/L
100 mg q.d., week 1, 24 weeks results
  CRP mean CFB mg/L (LOCF): -11.02 mg/L
100 mg q.d., week 2, 12 weeks results
  CRP mean CFB mg/L (LOCF): -12.94 mg/L
100 mg q.d., week 2, 24 weeks results
  CRP mean CFB mg/L (LOCF): -12.94 mg/L
100 mg q.d., week 4, 12 weeks results
  CRP mean CFB mg/L (LOCF): -13.18 mg/L
100 mg q.d., week 4, 24 weeks results
  CRP mean CFB mg/L (LOCF): -13.18 mg/L
100 mg q.d., week 8, 24 weeks results
  CRP mean CFB mg/L (LOCF): -12.48 mg/L
100 mg q.d., week 12, 12 weeks results
  CRP mean CFB mg/L (LOCF): -13.57 mg/L
100 mg q.d., week 12, 24 weeks results
  CRP mean CFB mg/L (LOCF): -13.57 mg/L
100 mg q.d., week 16, 24 weeks results
  CRP mean CFB mg/L (LOCF): -11.66 mg/L
100 mg q.d., week 20, 24 weeks results
  CRP mean CFB mg/L (LOCF): -14.50 mg/L
100 mg q.d., week 24, 24 weeks results
  CRP mean CFB mg/L (LOCF): -14.89 mg/L
100 mg q.d., week 8, 12 weeks results
  CRP mean CFB mg/L (LOCF): -12.48 mg/L
200 mg q.d., week 1, 12 weeks results
  CRP mean CFB mg/L (LOCF): -17.06 mg/L
200 mg q.d., week 1, 24 weeks results
  CRP mean CFB mg/L (LOCF): -17.06 mg/L
200 mg q.d., week 2, 12 weeks results
  CRP mean CFB mg/L (LOCF): -17.51 mg/L
200 mg q.d., week 2, 24 weeks results
  CRP mean CFB mg/L (LOCF): -17.51 mg/L
200 mg q.d., week 4, 12 weeks results
  CRP mean CFB mg/L (LOCF): -17.94 mg/L
200 mg q.d., week 4, 24 weeks results
  CRP mean CFB mg/L (LOCF): -17.94 mg/L
200 mg q.d., week 8, 24 weeks results
  CRP mean CFB mg/L (LOCF): -17.22 mg/L
200 mg q.d., week 12, 12 weeks results
  CRP mean CFB mg/L (LOCF): -17.24 mg/L
200 mg q.d., week 12, 24 weeks results
  CRP mean CFB mg/L (LOCF): -17.24 mg/L
200 mg q.d., week 16, 24 weeks results
  CRP mean CFB mg/L (LOCF): -20.38 mg/L
200 mg q.d., week 20, 24 weeks results
  CRP mean CFB mg/L (LOCF): -17.89 mg/L
200 mg q.d., week 24, 24 weeks results
  CRP mean CFB mg/L (LOCF): -15.57 mg/L
200 mg q.d., week 8, 12 weeks results
  CRP mean CFB mg/L (LOCF): -17.22 mg/L
2 × 25 mg b.i.d., week 2, 12 weeks results
  CRP mean CFB mg/L (LOCF): -10.06 mg/L
2 × 25 mg b.i.d., week 2, 24 weeks results
  CRP mean CFB mg/L (LOCF): -10.06 mg/L
2 × 25 mg b.i.d., week 4, 12 weeks results
  CRP mean CFB mg/L (LOCF): -7.72 mg/L
2 × 25 mg b.i.d., week 4, 24 weeks results
  CRP mean CFB mg/L (LOCF): -7.72 mg/L
2 × 25 mg b.i.d., week 8, 12 weeks results
  CRP mean CFB mg/L (LOCF): -10.94 mg/L
2 × 25 mg b.i.d., week 8, 24 weeks results
  CRP mean CFB mg/L (LOCF): -10.94 mg/L
2 × 25 mg b.i.d., week 12, 12 weeks results
  CRP mean CFB mg/L (LOCF): -10.26 mg/L
2 × 25 mg b.i.d., week 12, 24 weeks results
  CRP mean CFB mg/L (LOCF): -10.26 mg/L
2 × 25 mg b.i.d., week 16, 24 weeks results
  CRP mean CFB mg/L (LOCF): -12.55 mg/L
2 × 25 mg b.i.d., week 20, 24 weeks results
  CRP mean CFB mg/L (LOCF): -12.20 mg/L
2 × 25 mg b.i.d., week 24, 24 weeks results
  CRP mean CFB mg/L (LOCF): -11.68 mg/L
2 × 25 mg b.i.d., Week 1, 12 weeks results
  CRP mean CFB mg/L (LOCF): -8.47 mg/L
2 × 25 mg b.i.d., Week 1, 24 weeks results
  CRP mean CFB mg/L (LOCF): -8.47 mg/L
2 × 50 mg b.i.d., week 2, 12 weeks results
  CRP mean CFB mg/L (LOCF): -11.03 mg/L
2 × 50 mg b.i.d., week 2, 24 weeks results
  CRP mean CFB mg/L (LOCF): -11.03 mg/L
2 × 50 mg b.i.d., week 4, 12 weeks results
  CRP mean CFB mg/L (LOCF): -13.28 mg/L
2 × 50 mg b.i.d., week 4, 24 weeks results
  CRP mean CFB mg/L (LOCF): -13.28 mg/L
2 × 50 mg b.i.d., week 8, 12 weeks results
  CRP mean CFB mg/L (LOCF): -13.25 mg/L
2 × 50 mg b.i.d., week 8, 24 weeks results
  CRP mean CFB mg/L (LOCF): -13.25 mg/L
2 × 50 mg b.i.d., week 12, 12 weeks results
  CRP mean CFB mg/L (LOCF): -12.97 mg/L
2 × 50 mg b.i.d., week 12, 24 weeks results
  CRP mean CFB mg/L (LOCF): -12.97 mg/L
2 × 50 mg b.i.d., week 16, 24 weeks results
  CRP mean CFB mg/L (LOCF): -12.57 mg/L
2 × 50 mg b.i.d., week 20, 24 weeks results
  CRP mean CFB mg/L (LOCF): -13.16 mg/L
2 × 50 mg b.i.d., week 24, 24 weeks results
  CRP mean CFB mg/L (LOCF): -11.96 mg/L
2 × 50 mg b.i.d., Week 1, 12 weeks results
  CRP mean CFB mg/L (LOCF): -10.08 mg/L
2 × 50 mg b.i.d., Week 1, 24 weeks results
  CRP mean CFB mg/L (LOCF): -10.08 mg/L
2 × 100 mg b.i.d., week 2, 12 weeks results
  CRP mean CFB mg/L (LOCF): -19.69 mg/L
2 × 100 mg b.i.d., week 2, 24 weeks results
  CRP mean CFB mg/L (LOCF): -19.69 mg/L
2 × 100 mg b.i.d., week 4, 12 weeks results
  CRP mean CFB mg/L (LOCF): -20.64 mg/L
2 × 100 mg b.i.d., week 4, 24 weeks results
  CRP mean CFB mg/L (LOCF): -20.64 mg/L
2 × 100 mg b.i.d., week 8, 12 weeks results
  CRP mean CFB mg/L (LOCF): -21.32 mg/L
2 × 100 mg b.i.d., week 8, 24 weeks results
  CRP mean CFB mg/L (LOCF): -21.32 mg/L
2 × 100 mg b.i.d., week 12, 12 weeks results
  CRP mean CFB mg/L (LOCF): -20.54 mg/L
2 × 100 mg b.i.d., week 12, 24 weeks results
  CRP mean CFB mg/L (LOCF): -20.54 mg/L
2 × 100 mg b.i.d., week 16, 24 weeks results
  CRP mean CFB mg/L (LOCF): -21.34 mg/L
2 × 100 mg b.i.d., week 20, 24 weeks results
  CRP mean CFB mg/L (LOCF): -20.80 mg/L
2 × 100 mg b.i.d., week 24, 24 weeks results
  CRP mean CFB mg/L (LOCF): -20.82 mg/L
2 × 100 mg b.i.d., Week 1, 12 weeks results
  CRP mean CFB mg/L (LOCF): -17.39 mg/L
2 × 100 mg b.i.d., Week 1, 24 weeks results
  CRP mean CFB mg/L (LOCF): -17.39 mg/L
